Assay: Example 1: phase 3 trial, enavogliflozin 0.3 mg once a day as monotherapy vs placebo for 24 weeks in patients with type 2 diabetes (HbA1c, FPG, C-peptide, body weight, lipids, blood pressure, HOMA, UACR, UGCR, adiponectin, leptin, safety)
Assay type: in vivo, human
Conditions: for Adiponectin, Mean (SD) / Adiponectin, Median / HOMA-IR, Mean (SD) / HOMA-IR, Median / HOMA-β, Mean (SD) / HOMA-β, Median / Leptin, Mean (SD) / Leptin, Median / UACR, Mean (SD) / UACR, Median / UGCR, Mean (SD) / UGCR, Median / Change from baseline in HOMA-IR, ANCOVA LS mean (SE) / Change from baseline in HOMA-IR, Mean (SD) / Change from baseline in HOMA-IR, Median / Change from baseline in HOMA-β, ANCOVA LS mean (SE) / Change from baseline in HOMA-β, Mean (SD) / Change from baseline in HOMA-β, Median / Change from baseline in UACR, ANCOVA LS mean (SE) / Change from baseline in UACR, Mean (SD) / Change from baseline in UACR, Median / Change from baseline in UGCR, ANCOVA LS mean (SE) / Change from baseline in UGCR, Mean (SD) / Change from baseline in UGCR, Median / Change from baseline in adiponectin, ANCOVA LS mean (SE) / Change from baseline in adiponectin, Mean (SD) / Change from baseline in adiponectin, Median / Change from baseline in leptin, ANCOVA LS mean (SE) / Change from baseline in leptin, Mean (SD) / Change from baseline in leptin, Median / Change from baseline in HOMA-IR, ANCOVA LS mean difference / Change from baseline in HOMA-β, ANCOVA LS mean difference / Change from baseline in UACR, ANCOVA LS mean difference / Change from baseline in UGCR, ANCOVA LS mean difference / Change from baseline in adiponectin, ANCOVA LS mean difference / Change from baseline in leptin, ANCOVA LS mean difference: LOCF, full analysis set; for Adiponectin, Mean (SD) / Adiponectin, Median / HOMA-IR, Mean (SD) / HOMA-IR, Median / HOMA-β, Mean (SD) / HOMA-β, Median / Leptin, Mean (SD) / Leptin, Median / UACR, Mean (SD) / UACR, Median / UGCR, Mean (SD) / UGCR, Median / Change from baseline in HOMA-IR, ANCOVA LS mean (SE) / Change from baseline in HOMA-IR, Mean (SD) / Change from baseline in HOMA-IR, Median / Change from baseline in HOMA-β, ANCOVA LS mean (SE) / Change from baseline in HOMA-β, Mean (SD) / Change from baseline in HOMA-β, Median / Change from baseline in UACR, ANCOVA LS mean (SE) / Change from baseline in UACR, Mean (SD) / Change from baseline in UACR, Median / Change from baseline in UGCR, ANCOVA LS mean (SE) / Change from baseline in UGCR, Mean (SD) / Change from baseline in UGCR, Median / Change from baseline in adiponectin, ANCOVA LS mean (SE) / Change from baseline in adiponectin, Mean (SD) / Change from baseline in adiponectin, Median / Change from baseline in leptin, ANCOVA LS mean (SE) / Change from baseline in leptin, Mean (SD) / Change from baseline in leptin, Median: 0.3 mg; for Change from baseline in HOMA-IR, ANCOVA LS mean difference / Change from baseline in HOMA-β, ANCOVA LS mean difference / Change from baseline in UACR, ANCOVA LS mean difference / Change from baseline in UGCR, ANCOVA LS mean difference / Change from baseline in adiponectin, ANCOVA LS mean difference / Change from baseline in leptin, ANCOVA LS mean difference: 0.3 mg vs placebo
Description: When a subject voluntarily gave written consent to participate in this clinical trial, a screening test was conducted. […] However, when the administration of a hypoglycemic agent was interrupted before the clinical trial Visit 1 (screening), at least an 8-week washout period, including the discontinuation period, was required, and during this period, a stable diet and exercise program was followed. Naïve patients were screened without a separate washout period, and the criteria for naïve patients were defined as patients who had not been administered hypoglycemic agents within 24 weeks prior to the date of obtaining written consent. […] In addition, they were instructed to maintain regular exercise and dietary control starting from 8 weeks prior to screening without changing their daily life patterns during the clinical trial period.

## OC[C@H]1O[C@@H](c2cc(Cc3ccc(C4CC4)cc3)c(Cl)c3c2CCO3)[C@H](O)[C@@H](O)[C@@H]1O [Enavogliflozin, (2S,3R,4R,5S,6R)-2-(7-chloro-6 (4-cyclopropylbenzyl)-2,3-dihydrobenzofuran-4-yl)-6-(hydroxymethyl)tetrahydro-2H-pyran-3,4,5-triol]
24 weeks, vs placebo
  Occurrence rates of adverse events or adverse drug reactions compared to the control: no statistically significant differences
Baseline
  Adiponectin, Mean (SD): 7.79 µg/mL
  Adiponectin, Median: 6.22 µg/mL
  HOMA-IR, Mean (SD): 3.47
  HOMA-IR, Median: 2.67
  HOMA-β, Mean (SD): 46.40
  HOMA-β, Median: 36.25
  Leptin, Mean (SD): 11.16 ng/mL
  Leptin, Median: 6.94 ng/mL
  UACR, Mean (SD): 28200 mg/kg
  UACR, Median: 10.50 g/kg
  UGCR, Mean (SD): 1.42 mg/mg
  UGCR, Median: 10.11 mg/mg
Week 6
  Adiponectin, Mean (SD): 7.91 µg/mL
  Adiponectin, Median: 6.67 µg/mL
  Change from baseline in HOMA-IR, ANCOVA LS mean (SE): −1.75
  Change from baseline in HOMA-IR, Mean (SD): −1.53
  Change from baseline in HOMA-IR, Median: −0.96
  Change from baseline in HOMA-β, ANCOVA LS mean (SE): 3.20
  Change from baseline in HOMA-β, Mean (SD): 3.95
  Change from baseline in HOMA-β, Median: 3.10
  Change from baseline in UACR, ANCOVA LS mean (SE): 1.45 g/kg
  Change from baseline in UACR, Mean (SD): 3660 mg/kg
  Change from baseline in UACR, Median: 0.80 g/kg
  Change from baseline in UGCR, ANCOVA LS mean (SE): 55.38 mg/mg
  Change from baseline in UGCR, Mean (SD): 53.23 mg/mg
  Change from baseline in UGCR, Median: 50.85 mg/mg
  Change from baseline in adiponectin, ANCOVA LS mean (SE): 0.22 µg/mL
  Change from baseline in adiponectin, Mean (SD): 0.31 µg/mL
  Change from baseline in adiponectin, Median: 0.48 µg/mL
  Change from baseline in leptin, ANCOVA LS mean (SE): -2.82 ng/mL
  Change from baseline in leptin, Mean (SD): -2.48 ng/mL
  Change from baseline in leptin, Median: -1.13 ng/mL
  HOMA-IR, Mean (SD): 1.96
  HOMA-IR, Median: 1.62
  HOMA-β, Mean (SD): 50.65
  HOMA-β, Median: 40.10
  Leptin, Mean (SD): 8.61 ng/mL
  Leptin, Median: 5.75 ng/mL
  UACR, Mean (SD): 32120 mg/kg
  UACR, Median: 11.30 g/kg
  UGCR, Mean (SD): 54.67 mg/mg
  UGCR, Median: 51.06 mg/mg
  Change from baseline in HOMA-IR, ANCOVA LS mean difference: −1.81
  Change from baseline in HOMA-β, ANCOVA LS mean difference: 3.30
  Change from baseline in UACR, ANCOVA LS mean difference: 7.96 g/kg
  Change from baseline in UGCR, ANCOVA LS mean difference: 52.97 mg/mg
  Change from baseline in adiponectin, ANCOVA LS mean difference: 0.26 µg/mL
  Change from baseline in leptin, ANCOVA LS mean difference: -2.89 ng/mL
Week 12
  Adiponectin, Mean (SD): 8.57 µg/mL
  Adiponectin, Median: 6.59 µg/mL
  Change from baseline in HOMA-IR, ANCOVA LS mean (SE): −1.60
  Change from baseline in HOMA-IR, Mean (SD): −1.50
  Change from baseline in HOMA-IR, Median: −1.09
  Change from baseline in HOMA-β, ANCOVA LS mean (SE): 13.51
  Change from baseline in HOMA-β, Mean (SD): 12.44
  Change from baseline in HOMA-β, Median: 7.15
  Change from baseline in UACR, ANCOVA LS mean (SE): -4.45 g/kg
  Change from baseline in UACR, Mean (SD): -7760 mg/kg
  Change from baseline in UACR, Median: 0.60 g/kg
  Change from baseline in UGCR, ANCOVA LS mean (SE): 52.58 mg/mg
  Change from baseline in UGCR, Mean (SD): 52.43 mg/mg
  Change from baseline in UGCR, Median: 51.21 mg/mg
  Change from baseline in adiponectin, ANCOVA LS mean (SE): 0.94 µg/mL
  Change from baseline in adiponectin, Mean (SD): 0.78 µg/mL
  Change from baseline in adiponectin, Median: 0.65 µg/mL
  Change from baseline in leptin, ANCOVA LS mean (SE): -2.35 ng/mL
  Change from baseline in leptin, Mean (SD): -2.38 ng/mL
  Change from baseline in leptin, Median: -1.15 ng/mL
  HOMA-IR, Mean (SD): 1.97
  HOMA-IR, Median: 1.53
  HOMA-β, Mean (SD): 58.83
  HOMA-β, Median: 42.30
  Leptin, Mean (SD): 8.78 ng/mL
  Leptin, Median: 6.26 ng/mL
  UACR, Mean (SD): 20430 mg/kg
  UACR, Median: 11.15 g/kg
  UGCR, Mean (SD): 53.85 mg/mg
  UGCR, Median: 51.70 mg/mg
  Change from baseline in HOMA-IR, ANCOVA LS mean difference: −1.72
  Change from baseline in HOMA-β, ANCOVA LS mean difference: 12.09
  Change from baseline in UACR, ANCOVA LS mean difference: -15.16 g/kg
  Change from baseline in UGCR, ANCOVA LS mean difference: 51.21 mg/mg
  Change from baseline in adiponectin, ANCOVA LS mean difference: 0.67 µg/mL
  Change from baseline in leptin, ANCOVA LS mean difference: -3.17 ng/mL
Week 18
  Adiponectin, Mean (SD): 8.62 µg/mL
  Adiponectin, Median: 6.76 µg/mL
  Change from baseline in HOMA-IR, ANCOVA LS mean (SE): −1.55
  Change from baseline in HOMA-IR, Mean (SD): −1.48

Source: patent publication US20260130933A1, “PHARMACEUTICAL COMPOSITION FOR PREVENTION OR TREATMENT OF NEPHROPATHY AND/OR DIABETES MELLITUS, COMPRISING ENAVOGLIFLOZIN” (DAEWOONG PHARMACEUTICAL CO., LTD., priority 2022, published 2026)
